In PMC11005233, “Targeting FTO induces colorectal cancer ferroptotic cell death by decreasing SLC7A11/GPX4 expression” (Journal of Experimental & Clinical Cancer Research : CR, 2024) one finds Kd data, which are given here for 1 compound.

The experiment deals with fat mass and obesity-associated protein (FTO) (Homo sapiens, UniProt Q9C0B1). Briefly: SPR (Biacore T200); also thermal shift, CETSA, cell-free m6A demethylase assay. Format: binding.
Sequence of fat mass and obesity-associated protein (FTO) (Q9C0B1 whole entry): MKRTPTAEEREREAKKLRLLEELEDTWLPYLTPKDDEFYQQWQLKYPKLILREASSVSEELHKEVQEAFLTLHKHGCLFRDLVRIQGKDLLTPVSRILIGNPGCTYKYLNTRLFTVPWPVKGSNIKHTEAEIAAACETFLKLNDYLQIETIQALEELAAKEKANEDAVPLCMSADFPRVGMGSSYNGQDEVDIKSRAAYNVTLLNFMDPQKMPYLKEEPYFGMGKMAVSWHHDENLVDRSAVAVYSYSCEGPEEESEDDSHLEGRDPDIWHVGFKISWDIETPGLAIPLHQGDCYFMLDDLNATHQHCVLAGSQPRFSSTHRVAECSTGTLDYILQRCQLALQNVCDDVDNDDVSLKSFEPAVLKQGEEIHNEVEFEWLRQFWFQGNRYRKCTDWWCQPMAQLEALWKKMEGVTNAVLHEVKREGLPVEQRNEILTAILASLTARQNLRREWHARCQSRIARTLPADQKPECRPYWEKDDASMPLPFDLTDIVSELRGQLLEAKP

What is called Kd is the free concentration of one partner at which half of the binding sites on the other are occupied at equilibrium, for simple one-to-one binding. On to `C/C(=C\C(=O)OCCCCCCCCC(=O)O)C[C@@H]1OC[C@H](C[C@@H]2O[C@H]2[C@@H](C)[C@H](C)O)[C@@H](O)[C@H]1O` [Mupirocin], for which the Kd is 3.63 µM.
